In patent publication US7846903B2, “Type II cubic liquid crystal composition” (National Institute of Advanced Industrial Science and …, priority 2004, dated 2010):
Values belong to the compound of their own block, whether it stands above or below them.

Assays:
[1] = Krafft temperature (TK) by DSC of amphiphilic compound/water system; format: physicochemical; details: for Krafft temperature (° C.): amphiphilic compound alone; for TK (Krafft temperature): compound/water system
Procedure: Liquid crystals such as cubic liquid crystals formed by amphiphilic lipids are formed only at the Krafft temperature (TK), as determined depending on types and concentrations of amphiphilic lipids, or higher. Furthermore, liquid crystals generally undergo a phase transition upon changes in the concentration of the amphiphilic lipid or temperature. Accordingly, the maximal temperature (Tmax) at which a given liquid crystal structure can be stably present is also determined depending on lipid type and concentration of amphiphilic lipid. Thus, a liquid crystal structure formed by a given type of amphiphilic lipid is stably formed in the temperature range between TK and Tmax. The correlation between TK-Tmax and the concentration of the amphiphilic lipid is generally indicated as a “concentration-temperature dependent phase diagram” of the amphiphilic lipid/water system. The Krafft temperature of the amphiphilic lipid can be determined by a method known in the art, such as a method involving the preparation of such a phase diagram (e.g., Laughlin, R. G., “The Aqueous Phase Behavior of Surfactants,” 1994, Academic Press London, pp. 106-117). The Krafft temperature of a mixture of two or more amphiphilic lipids can be determined by the same method.
In the cubic liquid crystal composition of the present invention, stable bicontinuous type II cubic liquid crystals are formed at low temperatures, such as lower than 6° C. In the liquid crystal composition of the present invention, stable bicontinuous type II cubic liquid crystals are typically formed between −10° C. (or at the freezing temperature of the aqueous medium used or higher) and 80° C., and preferably between 0° C. and 50° C. The Krafft temperature of the amphiphilic lipid can be easily determined by, for example, DSC assay of an aqueous solution containing 1% to 85% by mass of amphiphilic lipid or by observing the melting behavior of the amphiphilic lipid under a (polarizing) microscope. More precisely, such temperature may be determined in accordance with a conventional technique involving the preparation of a phase diagram (e.g., Laughlin, R. G., “The Aqueous Phase Behavior of Surfactants,” 1994, Academic Press, London, pp. 106-117).
The Krafft temperatures of these amphiphilic compounds and mixtures thereof determined by the analyses described below are shown in Table 2-1 and Table 2-2.
Subsequently, the sample of mono-O-(phytanyl)pentaerythritol/water system was subjected to differential scanning calorimetry (DSC) in a temperature range between −45° C. and 70° C. DSC analysis employed the Seiko SSC/560U differential scanning calorimeter (Seiko Instruments Inc.). The sample of mono-O-(phytanyl)pentaerythritol/water system (72.4% by mass) prepared by the above method was sealed in a DSC cell, and the sample was incubated while cooling at −45° C. for 3 hours to thoroughly form a hydrated solid of mono-O-(phytanyl)pentaerythritol (hereafter abbreviated as “hydrated solid”). Subsequently, this hydrated solid was heated at a rate of temperature increase of 0.5° C./minute and a melting behavior of the hydrated solid was inspected by DSC analysis. As a result, an endothermic peak resulting from melting of the hydrated solid that begins at around −40° C. and ends at around −27° C. and an endothermic peak resulting from ice melting observed between −10° C. and 1° C. were observed, as shown in FIG. 4. In FIG. 4, the left peak is the endothermic peak resulting from melting of the hydrated solid and the right peak is the endothermic peak resulting from ice melting. Although analysis was conducted up to 70° C., other thermal transition was not observed. Substantially the same results were obtained at other concentrations. Thus, the TK of mono-O-(phytanyl)pentaerythritol was concluded to be 0° C. or lower.

[2] = Formation and structure of cubic liquid crystals by polarizing microscopy (penetration method) and SAXS; format: physicochemical; details: for liquid crystal phase formed: mixed with water, polarizing microscopy and/or SAXS
Excerpt: Whether or not the amphiphilic lipid/water system forms cubic liquid crystals and whether or not such composition is type I or II can be easily determined by the penetration method. A small amount (several mg) of amphiphilic lipids is placed on a glass slide for a microscope, and slight pressure is applied with a glass cover to form a thin layer of amphiphilic lipids (diameter: about 1 to 5 mm) with a thickness of about 10 μm in the gap between the glass slide and the glass cover. Upon addition of water or an aqueous medium from a side of the gap between the glass slide and the glass cover by capillary action, water gradually invades the amphiphilic lipid thin layer from the exterior edge, and a water content gradient is formed from the amphiphilic lipid thin layer/water interface toward the inside of the amphiphilic lipid thin layer. Polarizing microscopic observation thereof enables the determination of a phase type formed depending on the concentration of the amphiphilic lipid/water system. […] In FIG. 2, 4 regions are observed. The rightmost region in the photograph indicates a water region, and the other regions indicate hydrous amphiphilic lipid regions. In the photograph, the rightmost regions indicates the highest water content and the leftmost region indicates a region of amphiphilic lipids that has not yet been penetrated by water. […] Since cubic liquid crystals are stably formed at the interface of excess water and the amphiphilic lipid portion, such crystals are found to be of type II.
To this end, whether or not the liquid crystal structure has cubic lattices may be investigated by the small-angle x-ray scattering (SAXS) assay. In this process, a sample of an amphiphilic lipid/water system at a given concentration may be introduced into a quartz X-ray capillary tube, the capillary may be sealed with an oxygen burner, and the resultant may be subjected to the SAXS assay.
The cubic liquid crystal composition of the present invention is not particularly limited. […] Thus, spaces and lattice constants can be easily determined. The peak values of small angle X-ray scattering or the cubic lattice size of cubic liquid crystals in the presence of an excess aqueous solvent are at constant levels regardless of the lipid concentration. The coexistence state of cubic liquid crystals and an excess aqueous medium can be confirmed by the SAXS assay. Thus, whether or not the cubic liquid crystals are of type II can be easily determined.
In equations, nL and nW are actually measurable, and ac can be measured by the SAXS experiment. Thus, the dhc value can be determined based on equations (ii) and (iii). […] Based on such comparison, whether or not the cubic liquid crystal structure is of a bicontinuous type can be determined.
Mono-O-(3,7,11,15-tetramethylhexadecyl)pentaerythritol (hereafter referred to as “mono-O-(phytanyl)pentaerythritol,” formula (5) above) and pure water were introduced into a mixing device, and incubation was carried out while performing 100 or more times of mixing operations at room temperature (23° C.) over the period of 48 hours. Thus, a homogeneously mixed sample of mono-O-(phytanyl)pentaerythritol/water system was obtained. This sample of mono-O-(phytanyl)pentaerythritol/water system appeared to be a transparent gel composition.
Subsequently, the thus obtained sample of mono-O-(phytanyl)pentaerythritol/water system (the concentration of the amphiphilic compound: 74.6% by mass) was observed by polarizing microscopy. In entire region of the lipid portions, optically isotropic textures peculiar to the cubic liquid crystals were observed (FIG. 3). In FIG. 3, the right region indicates water and the left region indicates the sample of mono-O-(phytanyl)pentaerythritol/water system. […] Such observation indicates the formation of cubic liquid crystals.
Subsequently, the sample of mono-O-(phytanyl)pentaerythritol/water system was confirmed to be a cubic liquid crystal by small-angle x-ray scattering (SAXS). […]

[3] = lipid alone, total amphiphilic compound content 60% by mass (excess water)

Krafft temperature (° C.) [1]: 0 °C or lower | TK (Krafft temperature) [1]: ≤ 0 °C
SMILES: CC(C)CCCC(C)CCCC(C)CCCC(C)CCCC(=O)OCC(O)C(O)CO (stereo not drawn) [formula (7), 1-O-(5,9,13,17-tetramethyloctadecanoyl)erythritol]

lattice constant ([2]; Pn3m, 52.3% by mass, 1° C.): 11.4 nm | lattice constant ([2]; Pn3m, 52.3% by mass, 25° C.): 11.3 nm | lattice constant ([2]; Pn3m, 52.3% by mass, 45° C.): 10.1 nm | Krafft temperature (° C.) [1]: 0 °C or lower | TK (Krafft temperature) [1]: ≤ 0 °C
SMILES: CC(C)CCCC(C)CCCC(C)CCCC(C)CC(=O)OCC(O)C(O)CO (stereo not drawn) [formula (4), 1-O-(3,7,11,15-tetramethylhexadecanoyl)erythritol]

lattice constant ([2]; Ia3d, 69% by mass, 30° C.): 17.4 nm | lattice constant ([2]; Ia3d, 69% by mass, 40° C.): 16.9 nm | lattice constant ([2]; Ia3d, 69% by mass, 50° C.): 17.0 nm | lattice constant ([2]; Pn3m, 61% by mass, 1° C.): 12.2 nm | lattice constant ([2]; Pn3m, 61% by mass, 20° C.): 12.2 nm | lattice constant ([2]; Pn3m, 61% by mass, 30° C.): 12.1 nm | lattice constant ([2]; Pn3m, 61% by mass, 40° C.): 11.4 nm | lattice constant ([2]; Pn3m, 61% by mass, 50° C.): 11.0 nm | lattice constant ([2]; Pn3m, 61% by mass, 60° C.): 10.1 nm | Krafft temperature (° C.) [1]: 0 °C or lower | TK (Krafft temperature) [1]: ≤ 0 °C
SMILES: CC(C)CCCC(C)CCCC(C)CCCC(C)CCCC(=O)OC[C@H](O)[C@H]1OC(=O)C(O)=C1O (stereo partly drawn) [formula (15), 6-O-(5,9,13,17-tetramethyloctadecanoyl)-L-ascorbic acid]
Temperature at which formation of cubic liquid crystals was observed (° C.) ([2]; Table 13, 69% by mass, two-phase system of Pn3m and Ia3d cubic liquid crystals): 20 (Two-phase system of Pn3m and Ia3d ° C.

Krafft temperature (° C.) [1]: 0 °C or lower | TK (Krafft temperature) [1]: ≤ 0 °C
SMILES: CC(C)CCCC(C)CCCC(C)CCCCOCC(CO)(CO)CO (stereo not drawn) [formula (12), mono-O-(5,9,13-trimethyltetradecyl)pentaerythritol]

Krafft temperature (° C.) [1]: 0 °C or lower
SMILES: CC(C)CCCC(C)CCCC(C)CCOCC(O)C(O)CO (stereo not drawn) [formula (2), 1-O-(3,7,11-trimethyldodecyl)erythritol]

lattice constant ([2]; Ia3d, 53.7% by mass, 20° C.): 17.3 nm | lattice constant ([2]; Ia3d, 53.7% by mass, 35° C.): 17.2 nm | lattice constant ([2]; Ia3d, 53.7% by mass, 40° C.): 17.1 nm | Krafft temperature (° C.) [1]: 0 °C or lower | TK (Krafft temperature) [1]: ≤ 0 °C
SMILES: CC(C)CCCC(C)CCCC(C)CCCCOCC(O)C(O)CO (stereo not drawn) [formula (3), 1-O-(5,9,13-trimethyltetradecyl)erythritol]
Temperature at which formation of cubic liquid crystals was observed (° C.) ([2]; Table 6, 53.7% by mass, Ia3d + Pn3m): 40 (Ia3d + Pn3m cubic liquid crystals) ° C.

Krafft temperature (° C.) [1]: 0 °C or lower | TK (Krafft temperature) [1]: ≤ 0 °C
SMILES: CC(C)CCCC(C)CCCC(C)CCCC(C)CCCC(=O)OCC(CO)(CO)CO (stereo not drawn) [formula (9)]
liquid crystal phase formed [2]: bicontinuous type II Pn3m cubic liquid crystals

liquid crystal phase formed [2]: type II hexagonal liquid crystals
SMILES: CC(C)CCCC(C)CCCC(C)CCCC(C)CCOCC(O)CO (stereo not drawn) [1-O-(3,7,11-15-tetramethylhexadecyl)glycerol, reference compound]

lattice constant ([2]; 61.5% by mass, 1° C.): 10.1 nm | lattice constant ([2]; 61.5% by mass, 30° C.): 9.9 nm | lattice constant ([2]; 61.5% by mass, 40° C.): 9.5 nm | Krafft temperature (° C.) [1]: 0 °C or lower | TK (Krafft temperature) [1]: ≤ 0 °C
SMILES: CC(C)CCCC(C)CCCC(C)CCCC(C)CCCCOC1OC[C@@H](O)C(O)C1O (stereo partly drawn) [formula (10), 1-O-(5,9,13,17-tetramethyloctadecyl)-β-D-xylopyranoside]

maximal temperature at which the cubic liquid crystal structure is formed [2]: 40 °C | lattice constant ([2]; 56.7% by mass, Pn3m cubic liquid crystals, 1° C.): 8.2 nm | lattice constant ([2]; 74.6% by mass, Ia3d cubic liquid crystals, 1° C.): 12.3 nm | dhc value of bilayer membrane of the cubic liquid crystal structure ([2]; calculated based on SAXS results): 1.17±0.1 nm | diameter of the water channel of the cubic liquid crystals [2, 3]: 2.5 nm | lattice constant of the cubic liquid crystals [2, 3]: 7.06 nm | Krafft temperature (° C.) [1]: 0 °C or lower | TK (Krafft temperature) [1]: ≤ 0 °C
SMILES: CC(C)CCCC(C)CCCC(C)CCCC(C)CCOCC(CO)(CO)CO (stereo not drawn) [formula (5), mono-O-(3,7,11,15-tetramethylhexadecyl)pentaerythritol]
Temperature at which formation of cubic liquid crystals was observed (° C.) ([2]; 74.6% by mass, two-phase system of Ia3d and Pn3m cubic liquid crystals): 25 (Two-phase system of Ia3d and Pn3m cubic ° C.

lattice constant ([2]; 58.9% by mass, 25° C.): 10.6 nm | lattice constant ([2]; 58.9% by mass, 55° C.): 8.3 nm | Krafft temperature (° C.) [1]: 0 °C or lower | TK (Krafft temperature) [1]: ≤ 0 °C
SMILES: CC(C)CCCC(C)CCCC(C)CCCC(C)CC(=O)OCC(CO)(CO)CO (stereo not drawn) [formula (6), mono-O-(3,7,11,15-tetramethylhexadecanoyl)pentaerythritol]
Temperature at which formation of cubic liquid crystals was observed (° C.) ([2]; Table 4, 56.0% by mass, two-phase system of Pn3m cubic and lamellar liquid crystals): 1 (Two-phase system of Pn3m cubic liquid ° C.

lattice constant ([2]; 84.2% by mass, 1° C.): 9.8 nm | lattice constant ([2]; 84.2% by mass, 25° C.): 9.7 nm | lattice constant ([2]; 84.2% by mass, 40° C.): 9.6 nm | Temperature at which formation of cubic liquid crystals was observed (° C.) ([2]; Table 12, 78.0% by mass, Ia3d): 1 (Ia3d cubic liquid crystals) ° C. | Krafft temperature (° C.) [1]: 0 °C or lower | TK (Krafft temperature) ([1]; listed as α-XP): ≤ 0 °C
SMILES: CC(C)CCCC(C)CCCC(C)CCCC(C)CCOC1OC[C@@H](O)C(O)C1O (stereo partly drawn) [formula (11)]
